Results: PubChem BioAssay (NCI)
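Five compound concentrations were applied to cells in 96-well plates for 48 hours; endpoints were derived by simple linear interpolation of the resulting dose-response curve. TGI marks complete inhibition of growth.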

Key:
Assay in all cases: NCI anticancer screen, dose series, 48 h
HT29 colon = tested on: HT29 colon
A549 NSCLC = tested on: A549 NSCLC
SF-539 CNS = tested on: SF-539 CNS
SF-268 CNS = tested on: SF-268 CNS
MCF7 breast = tested on: MCF7 breast
HOP-92 NSCLC = tested on: HOP-92 NSCLC
NCI-H522 lung = tested on: NCI-H522 lung
HCT-15 colon = tested on: HCT-15 colon
NCI/ADR-RES ovarian = tested on: NCI/ADR-RES ovarian
RXF 393 renal = tested on: RXF 393 renal

SMILES: COc1ccc2nc(-c3ccc(N)cc3)sc2c1
- TGI (HT29 colon): > 100 µM
- TGI (A549 NSCLC): > 100 µM
- TGI (SF-539 CNS): > 100 µM
- TGI (SF-268 CNS): > 100 µM
- TGI (MCF7 breast): > 100 µM
- TGI (HOP-92 NSCLC): > 100 µM
- TGI (NCI-H522 lung): > 100 µM
- TGI (HCT-15 colon): > 100 µM
- TGI (NCI/ADR-RES ovarian): > 100 µM
- TGI (RXF 393 renal): > 100 µM

SMILES: O=[N+]([O-])c1ccc(CSC2=C(c3ccc(Cl)cc3)S/C(=C3\SC(SCc4ccc([N+](=O)[O-])cc4)=C(c4ccc(Cl)cc4)S3)S2)cc1
- TGI (HT29 colon): > 100 µM
- TGI (A549 NSCLC): > 100 µM
- TGI (SF-539 CNS): > 100 µM
- TGI (SF-268 CNS): > 100 µM
- TGI (MCF7 breast): > 100 µM
- TGI (HOP-92 NSCLC): > 100 µM
- TGI (NCI-H522 lung): > 100 µM
- TGI (HCT-15 colon): > 100 µM
- TGI (NCI/ADR-RES ovarian): > 100 µM
- TGI (RXF 393 renal): > 100 µM

SMILES: CCC(CCCC[C@H]1CC[C@@H]2CC(=O)C[C@H]12)OC (stereo not given in full)
- TGI (HT29 colon): > 100 µM
- TGI (A549 NSCLC): > 100 µM
- TGI (SF-539 CNS): > 100 µM
- TGI (SF-268 CNS): > 100 µM
- TGI (MCF7 breast): > 100 µM
- TGI (HOP-92 NSCLC): > 100 µM
- TGI (NCI-H522 lung): > 100 µM
- TGI (HCT-15 colon): > 100 µM
- TGI (NCI/ADR-RES ovarian): > 100 µM
- TGI (RXF 393 renal): > 100 µM

SMILES: CC[C@@]1(O)C(=O)OCc2c1cc1n(c2=O)Cc2c-1nc1ccc(N)cc1c2CC[Si](C)(C)C
- TGI (HT29 colon): 11.6 µM
- TGI (A549 NSCLC): 0.177 µM
- TGI (SF-539 CNS): < 0.01 µM
- TGI (SF-268 CNS): 1.76 µM
- TGI (MCF7 breast): 0.39 µM
- TGI (HOP-92 NSCLC): 1.07 µM
- TGI (NCI-H522 lung): 0.127 µM
- TGI (HCT-15 colon): 14.2 µM
- TGI (NCI/ADR-RES ovarian): 2.02 µM
- TGI (RXF 393 renal): 0.257 µM

SMILES: Cc1csc(NCc2ccc(Cl)cc2)n1
- TGI (HT29 colon): > 100 µM
- TGI (A549 NSCLC): > 100 µM
- TGI (SF-539 CNS): > 100 µM
- TGI (SF-268 CNS): > 100 µM
- TGI (MCF7 breast): > 100 µM
- TGI (HOP-92 NSCLC): 89.9 µM
- TGI (NCI-H522 lung): > 100 µM
- TGI (HCT-15 colon): > 100 µM
- TGI (NCI/ADR-RES ovarian): > 100 µM
- TGI (RXF 393 renal): 79 µM

SMILES: CN(CCNC(=O)c1nn(C)c2c1Cc1ccccc1-2)CCNC(=O)c1nn(C)c2c1Cc1ccccc1-2
- TGI (HT29 colon): 33.5 µM
- TGI (A549 NSCLC): 33.3 µM
- TGI (SF-539 CNS): 27.6 µM
- TGI (SF-268 CNS): 29.4 µM
- TGI (MCF7 breast): 26 µM
- TGI (HOP-92 NSCLC): 29.3 µM
- TGI (NCI-H522 lung): 30 µM
- TGI (HCT-15 colon): 34.4 µM
- TGI (NCI/ADR-RES ovarian): 70.4 µM
- TGI (RXF 393 renal): 29.5 µM

SMILES: CCOC(=O)c1cccc(N=NNc2cccc(C(=O)OCC)c2)c1
- TGI (HT29 colon): > 100 µM
- TGI (A549 NSCLC): > 100 µM
- TGI (SF-539 CNS): 36.6 µM
- TGI (SF-268 CNS): 80.8 µM
- TGI (MCF7 breast): > 100 µM
- TGI (HOP-92 NSCLC): 46.8 µM
- TGI (NCI-H522 lung): 84.3 µM
- TGI (HCT-15 colon): > 100 µM
- TGI (NCI/ADR-RES ovarian): > 100 µM
- TGI (RXF 393 renal): 62.9 µM

SMILES: NC1CC(=O)c2c(I)sc(I)c21 (stereo not given)
- TGI (HT29 colon): 50.6 µM
- TGI (A549 NSCLC): > 79.5 µM
- TGI (SF-539 CNS): 44.8 µM
- TGI (SF-268 CNS): 46.1 µM
- TGI (MCF7 breast): > 67.7 µM
- TGI (HOP-92 NSCLC): 43.5 µM
- TGI (NCI-H522 lung): 24.3 µM
- TGI (HCT-15 colon): 45.8 µM
- TGI (NCI/ADR-RES ovarian): > 61.7 µM
- TGI (RXF 393 renal): > 60.8 µM

SMILES: N#CC1=C(N)OC2=C(CCCc3ccc([N+](=O)[O-])cc32)C1c1ccc(Cl)cc1 (stereo not given)
- TGI (HT29 colon): > 100 µM
- TGI (A549 NSCLC): > 100 µM
- TGI (SF-539 CNS): 29.5 µM
- TGI (SF-268 CNS): > 100 µM
- TGI (MCF7 breast): 22.6 µM
- TGI (HOP-92 NSCLC): > 100 µM
- TGI (NCI-H522 lung): 31.7 µM
- TGI (HCT-15 colon): > 100 µM
- TGI (NCI/ADR-RES ovarian): 78.1 µM
- TGI (RXF 393 renal): 19.5 µM

SMILES: CCc1nnc2sc(-c3ccc(-c4ccccc4[N+](=O)[O-])o3)nn12
- TGI (HT29 colon): > 100 µM
- TGI (A549 NSCLC): > 100 µM
- TGI (SF-539 CNS): 89 µM
- TGI (SF-268 CNS): > 100 µM
- TGI (MCF7 breast): > 100 µM
- TGI (HOP-92 NSCLC): > 100 µM
- TGI (NCI-H522 lung): > 100 µM
- TGI (HCT-15 colon): > 100 µM
- TGI (NCI/ADR-RES ovarian): 75.1 µM
- TGI (RXF 393 renal): > 100 µM

SMILES: Cc1nc2nnc(CCCCCCCCc3nnc4nc(C)[nH]n34)n2[nH]1
- TGI (HT29 colon): > 100 µM
- TGI (A549 NSCLC): > 100 µM
- TGI (SF-539 CNS): > 100 µM
- TGI (SF-268 CNS): > 100 µM
- TGI (MCF7 breast): > 100 µM
- TGI (HOP-92 NSCLC): > 100 µM
- TGI (NCI-H522 lung): > 100 µM
- TGI (HCT-15 colon): > 100 µM
- TGI (NCI/ADR-RES ovarian): > 100 µM
- TGI (RXF 393 renal): > 100 µM

SMILES: COc1cc2c(c(O)c1OC)C(O)C1CCC(=O)N1C2c1ccc2c(c1)OCO2 (stereo not given)
- TGI (HT29 colon): > 100 µM
- TGI (A549 NSCLC): > 100 µM
- TGI (SF-539 CNS): > 100 µM
- TGI (SF-268 CNS): > 100 µM
- TGI (MCF7 breast): > 100 µM
- TGI (HOP-92 NSCLC): > 100 µM
- TGI (NCI-H522 lung): > 100 µM
- TGI (HCT-15 colon): > 100 µM
- TGI (NCI/ADR-RES ovarian): > 100 µM
- TGI (RXF 393 renal): > 100 µM

SMILES: CCn1c(=O)c2nc(SC)sc2n(-c2ccccc2)c1=S
- TGI (HT29 colon): > 100 µM
- TGI (A549 NSCLC): > 100 µM
- TGI (SF-539 CNS): > 100 µM
- TGI (SF-268 CNS): > 100 µM
- TGI (MCF7 breast): > 100 µM
- TGI (HOP-92 NSCLC): > 100 µM
- TGI (NCI-H522 lung): > 100 µM
- TGI (HCT-15 colon): > 100 µM
- TGI (NCI/ADR-RES ovarian): > 100 µM
- TGI (RXF 393 renal): > 100 µM

SMILES: O=C(O)COc1c(Cl)cc(Cl)c(C(c2c(Cl)cc(Cl)c(OCC(=O)O)c2Cl)C(Cl)(Cl)Cl)c1Cl
- TGI (HT29 colon): 92.6 µM
- TGI (A549 NSCLC): 83.8 µM
- TGI (SF-539 CNS): > 100 µM
- TGI (SF-268 CNS): > 100 µM
- TGI (MCF7 breast): > 100 µM
- TGI (HOP-92 NSCLC): 62.4 µM
- TGI (NCI-H522 lung): > 100 µM
- TGI (HCT-15 colon): 76 µM
- TGI (NCI/ADR-RES ovarian): > 100 µM
- TGI (RXF 393 renal): 92.7 µM

SMILES: O=C1N[C@@H]([C@H]2CC[C@H](Cl)CN2)C(=O)N[C@H]1[C@H]1CC[C@H](Cl)CN1
- TGI (HT29 colon): 32.1 µM
- TGI (A549 NSCLC): 76.5 µM
- TGI (SF-539 CNS): 4.27 µM
- TGI (SF-268 CNS): 51.5 µM
- TGI (MCF7 breast): 7.25 µM
- TGI (HOP-92 NSCLC): 7.95 µM
- TGI (NCI-H522 lung): 4.06 µM
- TGI (HCT-15 colon): 57.5 µM
- TGI (NCI/ADR-RES ovarian): 10.4 µM
- TGI (RXF 393 renal): 12.2 µM

SMILES: C/C(=C\COP(=O)(O)OP(=O)(O)O)CC/C=C(\C)CNc1c(F)c(F)c(F)c(F)c1F
- TGI (HT29 colon): > 100 µM
- TGI (A549 NSCLC): > 100 µM
- TGI (SF-539 CNS): > 100 µM
- TGI (SF-268 CNS): > 100 µM
- TGI (MCF7 breast): > 100 µM
- TGI (HOP-92 NSCLC): > 100 µM
- TGI (NCI-H522 lung): > 100 µM
- TGI (HCT-15 colon): > 100 µM
- TGI (NCI/ADR-RES ovarian): > 100 µM
- TGI (RXF 393 renal): > 100 µM
